Activity calls are given as the source filed them. No cut-off for these calls is given here. *1 amine or outer side, *2 acyl side, *3 side chain or, on linkers, in order; H or OH if unused. Where a SMILES comes first, the peptide text is derived from it. Bridges are numbered along the chain shown (N, C = ends). [ ]: non-standard residue; d: D form. dβ3h(hPhe) = O=C(C[C@@H](CCc1ccccc1)N[*:1])[*:2]; Phe(4-F) = N[C@@H](Cc1ccc(F)cc1)C(=O)O; X1 = CC(C)(CO[*:2])C(=O)C(=O)[*:1]; Pip = O=C(O)[C@@H]1CCCCN1

One series deals with GTPase KRas (Homo sapiens, UniProt P01116, G12V). Briefly: Inhibition of recombinant HA-tagged K-Ras G12V mutant (unknown origin) assessed as disruption of interaction with GST-tagged Raf-RBD after overnight incubation by HTRF assay. Background: TR-FRET usually uses a lanthanide donor and a delayed reading to cut background.
GTPase KRas, sequence (P01116 whole entry G12V): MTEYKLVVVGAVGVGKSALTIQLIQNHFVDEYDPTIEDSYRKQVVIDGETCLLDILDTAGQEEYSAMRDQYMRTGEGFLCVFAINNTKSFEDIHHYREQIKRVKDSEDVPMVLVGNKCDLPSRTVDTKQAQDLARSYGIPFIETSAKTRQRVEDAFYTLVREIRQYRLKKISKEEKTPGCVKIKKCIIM
Series [1] relates to GTPase KRas (Homo sapiens), P01116 [G12V]. Briefly: Inhibition of K-Ras G12V mutant in human H358 cells assessed as decrease in Erk phosphorylation up to 16 hrs. The series is classed as cell-based.
GTPase KRas (Homo sapiens), P01116 [G12V], sequence (P01116 whole entry G12V, the tested form may be a part): as the sequence (P01116 whole entry G12V) above
Series [2] has the same test system. Briefly: Inhibition of K-Ras G12V mutant in human H358 cells assessed as decrease in Mek phosphorylation up to 16 hrs. Type of series: cell-based.
The test system is the same in series [3]. Briefly: Inhibition of K-Ras G12V mutant (unknown origin) assessed as disruption of interaction with GST-tagged Raf-RBD at 10 uM after 60 mins by fluorescence microscopic-based bead binding assay.
Series [4] has the same test system. As to conditions: 10 uM.
Series [5] addresses T1, Tyrosine-protein phosphatase non-receptor type 2 (Homo sapiens) (UniProt P17706).
T1 sequence (whole entry): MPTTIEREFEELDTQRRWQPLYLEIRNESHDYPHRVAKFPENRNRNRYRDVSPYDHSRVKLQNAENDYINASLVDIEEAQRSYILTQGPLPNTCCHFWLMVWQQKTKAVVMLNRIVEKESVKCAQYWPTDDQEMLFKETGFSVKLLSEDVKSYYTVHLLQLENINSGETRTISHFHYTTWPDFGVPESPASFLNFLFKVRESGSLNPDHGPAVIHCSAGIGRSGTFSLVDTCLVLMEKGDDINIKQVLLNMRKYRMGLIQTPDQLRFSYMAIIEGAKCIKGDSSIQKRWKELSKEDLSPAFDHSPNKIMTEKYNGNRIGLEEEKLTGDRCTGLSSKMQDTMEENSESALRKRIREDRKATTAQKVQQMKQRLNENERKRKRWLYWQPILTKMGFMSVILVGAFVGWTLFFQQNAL
Briefly: Binding affinity to TCPTP (unknown origin) up to 20 uM by fluorescence anisotropic assay.

The target of series [6] is T2, Tyrosine-protein phosphatase non-receptor type 1 (Homo sapiens) (UniProt P18031).
T2 sequence (whole entry): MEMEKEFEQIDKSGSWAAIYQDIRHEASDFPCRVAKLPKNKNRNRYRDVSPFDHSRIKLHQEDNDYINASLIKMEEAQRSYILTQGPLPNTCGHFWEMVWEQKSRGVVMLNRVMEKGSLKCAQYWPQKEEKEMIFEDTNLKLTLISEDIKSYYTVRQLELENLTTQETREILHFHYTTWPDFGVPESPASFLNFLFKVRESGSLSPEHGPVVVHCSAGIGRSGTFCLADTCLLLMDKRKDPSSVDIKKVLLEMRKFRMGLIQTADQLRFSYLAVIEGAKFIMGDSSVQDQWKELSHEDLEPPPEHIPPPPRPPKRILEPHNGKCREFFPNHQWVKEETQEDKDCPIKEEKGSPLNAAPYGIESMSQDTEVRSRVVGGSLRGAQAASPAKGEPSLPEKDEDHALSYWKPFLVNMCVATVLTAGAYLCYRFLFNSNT
Briefly: Binding affinity to PTP1B (unknown origin) up to 20 uM by fluorescence anisotropic assay.

In series [7] the test system is GTPase KRas (Homo sapiens), P01116 [G12V]. Briefly: Inhibition of K-Ras G12V mutant in human A549 cells assessed as decrease in Erk phosphorylation up to 16 hrs. Type of series: cell-based.
A short description of series [8]: Binding affinity to MBP-tagged VP35 (unknown origin) up to 20 uM by fluorescence anisotropic assay.
The subject of series [9] is GTPase KRas (Homo sapiens), P01116 [G12V]. Briefly: Inhibition of K-Ras G12V mutant in human A549 cells assessed as decrease in Mek phosphorylation up to 16 hrs. Type of series: cell-based.
Series [10] has the same test system. Briefly: Inhibition of K-Ras G12V mutant (unknown origin) assessed as disruption of interaction with Tiam1 at 10 uM after 60 mins by fluorescence microscopic-based bead binding assay.
Series [11] has the same test system. Briefly: Binding affinity to K-Ras G12V mutant (unknown origin) by surface plasmon resonance assay. For orientation: In SPR one partner is held on a chip, and binding of the other changes the refractive index at the surface.
The target of the next series is Albumin (Bos taurus, UniProt P02769). Briefly: Binding affinity to bovine serum albumin up to 20 uM by fluorescence anisotropic assay. As to conditions: cattle.
Albumin, sequence (P02769 whole entry): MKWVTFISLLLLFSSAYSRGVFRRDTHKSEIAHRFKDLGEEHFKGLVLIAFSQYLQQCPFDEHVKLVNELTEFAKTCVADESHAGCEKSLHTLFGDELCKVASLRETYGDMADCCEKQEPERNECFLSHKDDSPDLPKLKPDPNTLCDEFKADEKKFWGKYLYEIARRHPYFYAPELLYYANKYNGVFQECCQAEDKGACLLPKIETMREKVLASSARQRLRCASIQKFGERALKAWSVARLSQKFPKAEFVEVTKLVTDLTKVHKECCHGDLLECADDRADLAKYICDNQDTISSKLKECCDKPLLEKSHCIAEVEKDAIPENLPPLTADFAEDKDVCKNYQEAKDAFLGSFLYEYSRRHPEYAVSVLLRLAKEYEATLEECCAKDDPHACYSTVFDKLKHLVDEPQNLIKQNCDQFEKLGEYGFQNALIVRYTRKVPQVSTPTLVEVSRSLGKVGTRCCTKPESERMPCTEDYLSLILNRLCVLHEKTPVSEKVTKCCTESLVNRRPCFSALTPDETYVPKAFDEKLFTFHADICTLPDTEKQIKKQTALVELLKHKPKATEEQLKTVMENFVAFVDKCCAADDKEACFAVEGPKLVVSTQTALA
The test system of series [12] is GTPase KRas (Homo sapiens), P01116 [G12V]. Briefly: Inhibition of K-Ras G12V mutant (unknown origin) assessed as disruption fluorescein-labeled Raf binding to beads immobilized with K-Ras G12V mutant at 10 uM after 60 mins by fluorescence microscopic-based bead binding assay.
The target of series [13] is SH2 domain-containing protein 2A (Homo sapiens) (UniProt Q9NP31). Briefly: Binding affinity to GST-tagged TSAD SH2 domain (unknown origin) up to 20 uM by fluorescence anisotropic assay.
SH2 domain-containing protein 2A (Homo sapiens), sequence (Q9NP31 whole entry, looked up, the tested form may be a part): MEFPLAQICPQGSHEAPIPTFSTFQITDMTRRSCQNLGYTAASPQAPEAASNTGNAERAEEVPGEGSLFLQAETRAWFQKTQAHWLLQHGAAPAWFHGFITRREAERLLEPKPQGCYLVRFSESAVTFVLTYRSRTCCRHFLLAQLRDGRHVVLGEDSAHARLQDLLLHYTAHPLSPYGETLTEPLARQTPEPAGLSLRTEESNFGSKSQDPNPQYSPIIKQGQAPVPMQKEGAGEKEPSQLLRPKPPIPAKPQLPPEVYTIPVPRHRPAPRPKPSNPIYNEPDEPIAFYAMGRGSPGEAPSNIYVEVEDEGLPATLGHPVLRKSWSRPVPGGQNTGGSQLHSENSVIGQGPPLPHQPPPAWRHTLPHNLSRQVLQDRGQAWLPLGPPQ
The test system of series [14] is GTPase KRas (Homo sapiens), P01116 [G12V]. Briefly: Binding affinity to K-Ras G12V mutant (unknown origin) after 2 hrs by fluorescence polarization-based spectrofluorimetric analysis. (Fluorescence polarisation rises when a labelled molecule tumbles more slowly, as on binding a larger partner.)

In the case of `CC1(C)COC(=O)[C@H](Cc2ccccc2)NC(=O)[C@H](CCCNC(=N)N)NC(=O)[C@H](Cc2ccc(O)cc2)NC(=O)[C@@H]2CCCN2C(=O)[C@H](Cc2ccc(O)cc2)NC(=O)[C@@H](Cc2ccccc2)NC(=O)[C@H](CCC(N)=O)NC(=O)C[C@@H](CCc2ccccc2)NC(=O)[C@@H]2CCCCN2C(=O)C1=O`, the concentration for half-maximal inhibition (IC50) (usually the concentration that gives 50% inhibition) on GTPase KRas amounted to 10000 nM.
On the same count and under the same terms, under `CC1(C)COC(=O)[C@H](Cc2ccccc2)NC(=O)[C@H](CCCNC(=N)N)NC(=O)CNC(=O)[C@H](Cc2ccc(O)cc2)NC(=O)[C@@H](Cc2ccc3ccccc3c2)NC(=O)[C@H](CCCN)NC(=O)[C@H](CCC(N)=O)NC(=O)C[C@@H](CCc2ccccc2)NC(=O)[C@@H]2CCCCN2C(=O)C1=O` stands 1800 nM.
With `CC(C)C[C@@H]1NC(=O)[C@H](CCC(=O)O)NC(=O)[C@H](c2ccccc2)NC(=O)[C@@H](Cc2ccccc2)NC(=O)[C@H](CCCN)NC(=O)[C@@H]2CCCN2C(=O)[C@H](CCC(N)=O)NC(=O)C[C@@H](CCc2ccccc2)NC(=O)[C@@H]2CCCCN2C(=O)C(=O)C(C)(C)COC1=O`, the 50% inhibitory concentration (IC50) at GTPase KRas was 10000 nM.
Still for that read-out and setting: under `CC1(C)COC(=O)[C@H](Cc2ccccc2)NC(=O)[C@H](CCCNC(=N)N)NC(=O)[C@@H](Cc2ccc3ccccc3c2)NC(=O)[C@H](CCCNC(=N)N)NC(=O)[C@@H](Cc2ccccc2)NC(=O)[C@H](CCCN=C(N)N)NC(=O)[C@H](CCC(N)=O)NC(=O)C[C@@H](CCc2ccccc2)NC(=O)[C@@H]2CCCCN2C(=O)C1=O` stands 1100 nM; under `CCCC[C@H]1NC(=O)[C@@H](Cc2ccc3ccccc3c2)NC(=O)[C@@H](Cc2ccc3ccccc3c2)NC(=O)[C@@H](CCCCN)NC(=O)[C@H](CCCNC(=N)N)NC(=O)[C@H](Cc2ccc(F)cc2)NC(=O)[C@H](CCC(N)=O)NC(=O)C[C@@H](CCc2ccccc2)NC(=O)[C@@H]2CCCCN2C(=O)C(=O)C(C)(C)COC1=O`, 10000 nM.
`CCCC[C@H]1NC(=O)[C@H](Cc2ccc(F)cc2)NC(=O)[C@H](CCCN=C(N)N)NC(=O)[C@@H](Cc2ccc3ccccc3c2)NC(=O)[C@H](CCCN=C(N)N)NC(=O)[C@H](CCCN=C(N)N)NC(=O)[C@H](CCC(N)=O)NC(=O)C[C@@H](CCc2ccccc2)NC(=O)[C@@H]2CCCCN2C(=O)C(=O)C(C)(C)COC1=O`: the inhibition entry in series [1], in series [2], in series [7] and in series [9] was “inactive” in each case. In addition, the inhibition result in [3], in series [4], in series [10] and in [12] was “Active” each time. Besides, the result in series [5], in series [6], in [8], in [11] and in series [13] was Active. On Albumin, the outcome was Active.
Turning to `C[C@@H]1NC(=O)[C@H](Cc2ccc(O)cc2)NC(=O)[C@H](CCCNC(=N)N)NC(=O)[C@@H]([C@H](C)O)NC(=O)CNC(=O)[C@H](CCC(N)=O)NC(=O)C[C@@H](CCc2ccccc2)NC(=O)[C@@H]2CCCCN2C(=O)C(=O)C(C)(C)COC(=O)[C@H](Cc2ccccc2)NC1=O`, the IC50 on GTPase KRas was 2300 nM.
Still for that read-out and setting: as for `CC(C)[C@@H]1NC(=O)[C@@H](CC(N)=O)NC(=O)[C@H](CCCNC(=N)N)NC(=O)[C@H](CCCNC(=N)N)NC(=O)[C@H](Cc2ccc(F)cc2)NC(=O)[C@H](Cc2ccc(O)cc2)NC(=O)[C@H](CCC(N)=O)NC(=O)C[C@@H](CCc2ccccc2)NC(=O)[C@@H]2CCCCN2C(=O)C(=O)C(C)(C)COC1=O`, the figure is 1200 nM.
As to `CC(C)C[C@@H]1NC(=O)[C@H](CCCNC(=N)N)NC(=O)[C@H](CCCNC(=N)N)NC(=O)[C@H](Cc2ccc(O)cc2)NC(=O)[C@H](Cc2ccc(F)cc2)NC(=O)[C@H](CCCNC(=N)N)NC(=O)[C@H](CCC(N)=O)NC(=O)C[C@@H](CCc2ccccc2)NC(=O)[C@@H]2CCCCN2C(=O)C(=O)C(C)(C)COC1=O` ([Pip][dβ3h(hPhe)]QR[Phe(4-F)]YRRL; linker N-C via X1), the result in [5], in [6], in [14], in [8] and in [13] was inactive. For the same molecule, the Activity result on Albumin is “Not Active”.
With `CC(C)C[C@@H]1NC(=O)[C@@H](Cc2ccc3ccccc3c2)NC(=O)[C@H](CCCNC(=N)N)NC(=O)[C@@H](C(C)C)NC(=O)[C@H](CCCNC(=N)N)NC(=O)[C@H](C)NC(=O)[C@H](CCC(N)=O)NC(=O)C[C@@H](CCc2ccccc2)NC(=O)[C@@H]2CCCCN2C(=O)C(=O)C(C)(C)COC1=O`, the IC50 at GTPase KRas turned out to be 2000 nM.

Source of the values: ChEMBL document CHEMBL3217533, “Inhibition of Ras-Effector Interaction by Cyclic Peptides” (Medchemcomm, 2013).
